In the supplement of paper PMC10307832:

How the values were obtained:
Assay in all cases: relative viability (nuclei count vs DMSO), 5 days (fraction); higher = more cells survive
Ruxolitinib + Dasatinib = compound: N#CC[C@H](C1CCCC1)n1cc(-c2ncnc3[nH]ccc23)cn1 [Ruxolitinib] + Cc1nc(Nc2ncc(C(=O)Nc3c(C)cccc3Cl)s2)cc(N2CCN(CCO)CC2)n1 [Dasatinib] (partner 0.075 µM)
In short: (§1)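 Lung cancer cell lines in 1536-well plates were dosed by pin tool the day after seeding, either with one drug alone or with a fixed anchor-drug dose plus five library-drug doses (not always all listed) in √10 steps. After 5 days, cells were fixed and their nuclei stained in one step (final 0.05% Triton X-100, 1% formaldehyde, 1 ug/ml Hoechst), then counted on 4× images. Relative viability is the nuclei count in treated wells divided by that in vehicle wells. Values are medians of duplicate plates.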

Ruxolitinib + Pemetrexed = compound: N#CC[C@H](C1CCCC1)n1cc(-c2ncnc3[nH]ccc23)cn1 [Ruxolitinib] + Nc1nc2[nH]cc(CCc3ccc(C(=O)N[C@@H](CCC(=O)O)C(=O)O)cc3)c2c(=O)[nH]1 [Pemetrexed] (partner 0.2 µM)
In short: as §1

Vismodegib + Pemetrexed = compound: CS(=O)(=O)c1ccc(C(=O)Nc2ccc(Cl)c(-c3ccccn3)c2)c(Cl)c1 [Vismodegib] + Nc1nc2[nH]cc(CCc3ccc(C(=O)N[C@@H](CCC(=O)O)C(=O)O)cc3)c2c(=O)[nH]1 [Pemetrexed] (partner 0.2 µM)
In short: as §1

Vismodegib + Foretinib = compound: CS(=O)(=O)c1ccc(C(=O)Nc2ccc(Cl)c(-c3ccccn3)c2)c(Cl)c1 [Vismodegib] + COc1cc2c(Oc3ccc(NC(=O)C4(C(=O)Nc5ccc(F)cc5)CC4)cc3F)ccnc2cc1OCCCN1CCOCC1 [Foretinib] (partner 0.25 µM)
In short: as §1

Cell Line	relative viability (Ruxolitinib + Dasatinib; first compound 0.08 µM)	relative viability (Ruxolitinib + Dasatinib; first compound 0.253 µM)	relative viability (Ruxolitinib + Dasatinib; first compound 0.8 µM)	relative viability (Ruxolitinib + Dasatinib; first compound 2.53 µM)	relative viability (Ruxolitinib + Dasatinib; first compound 8 µM)	relative viability (Ruxolitinib + Pemetrexed; first compound 0.08 µM)	relative viability (Ruxolitinib + Pemetrexed; first compound 0.253 µM)	relative viability (Ruxolitinib + Pemetrexed; first compound 0.8 µM)	relative viability (Ruxolitinib + Pemetrexed; first compound 2.53 µM)	relative viability (Ruxolitinib + Pemetrexed; first compound 8 µM)	relative viability (Vismodegib + Pemetrexed; first compound 0.08 µM)	relative viability (Vismodegib + Pemetrexed; first compound 0.253 µM)	relative viability (Vismodegib + Pemetrexed; first compound 0.8 µM)	relative viability (Vismodegib + Pemetrexed; first compound 2.53 µM)	relative viability (Vismodegib + Pemetrexed; first compound 8 µM)	relative viability (Vismodegib + Foretinib; first compound 0.08 µM)	relative viability (Vismodegib + Foretinib; first compound 0.253 µM)	relative viability (Vismodegib + Foretinib; first compound 0.8 µM)	relative viability (Vismodegib + Foretinib; first compound 2.53 µM)	relative viability (Vismodegib + Foretinib; first compound 8 µM)
201T	0.571	0.593	0.67	0.558	0.558	0.336	0.338	0.389	0.325	0.299	0.323	0.354	0.336	0.335	0.297	1.17	1.04	0.951	1.08	1.08
A549	–	–	–	–	–	–	–	–	–	–	–	–	–	–	–	1.03	0.928	1.05	0.969	0.943
A-427	0.74	0.751	0.66	0.441	0.463	1	0.927	0.967	1.04	0.893	1.08	0.939	0.912	1.01	0.902	1	1.01	1.08	1.11	1.11
ABC-1	–	0.53	0.547	0.64	0.45	–	–	–	–	–	–	–	–	–	–	0.894	1.15	1.14	1.08	1.23
BEN	0.319	0.311	0.377	0.292	0.335	0.534	0.744	0.818	0.688	0.95	0.679	0.682	0.784	0.754	0.737	0.871	0.799	0.606	0.642	0.644
CAL-12T	0.497	0.546	0.561	0.25	0.163	1.15	1.18	1.22	0.993	0.802	1.12	1.13	1.13	1.14	1.13	1.08	1.06	1.05	1.06	1.16
COR-L23	0.483	0.534	0.521	0.386	0.341	0.203	0.191	0.201	0.195	0.191	0.195	0.19	0.184	0.195	0.207	0.957	0.929	0.891	0.973	1.06
COR-L 105	0.313	0.295	0.326	0.214	0.23	–	1	0.926	0.874	0.919	1.03	1.16	1.08	1.03	1.16	1.23	0.829	1.17	0.82	0.994
Calu-6	–	–	–	–	–	–	–	–	–	–	–	–	–	–	–	0.761	0.837	0.863	0.852	0.9
ChaGo-K-1	0.631	0.573	0.548	0.548	0.403	0.255	0.263	0.26	0.256	0.246	0.256	0.256	0.255	0.265	0.263	1.03	0.918	0.92	0.838	0.886
EBC-1	–	–	–	–	–	–	–	–	–	–	–	–	–	–	–	0.102	0.102	0.0802	0.097	0.105
EKVX	0.523	0.603	0.481	0.519	0.366	–	0.403	0.41	0.402	0.237	–	0.334	0.359	0.402	0.387	0.744	0.702	1.05	0.724	0.737
EMC-BAC-2	0.321	0.283	0.308	0.275	0.219	0.454	0.419	0.431	0.439	0.368	0.469	0.442	0.423	0.461	0.518	0.977	0.965	0.95	1	1.04
HCC-44	–	–	–	–	–	0.632	0.694	0.646	0.571	0.641	0.663	0.629	0.616	0.638	0.677	–	–	–	–	–
IA-LM	–	–	–	–	–	–	–	–	–	–	–	–	–	–	–	1.2	1.15	1.28	1.04	1.2
NCI-H522	0.751	1.03	0.916	0.919	0.731	1.04	0.973	1.05	0.964	0.857	1.18	0.731	1.01	0.836	0.988	–	–	–	–	–
NCI-H727	0.396	0.303	0.456	0.469	0.451	–	–	–	–	–	–	–	–	–	–	0.973	0.867	0.896	0.761	0.792
NCI-H1299	–	–	–	–	–	–	–	–	–	–	–	–	–	–	–	1.06	1.11	1.13	1.07	1.09
NCI-H1623	0.591	0.512	0.488	0.699	0.474	–	–	–	–	–	–	–	–	–	–	0.805	0.927	0.914	0.822	0.864
NCI-H1648	–	–	–	–	–	0.674	0.838	0.739	0.923	1.02	0.679	0.832	0.731	0.782	0.702	–	–	–	–	–
NCI-H1703	–	–	–	–	–	–	–	–	–	–	–	–	–	–	–	0.383	0.344	0.379	0.336	0.316
NCI-H1792	0.664	0.664	0.675	0.541	0.466	0.883	0.608	0.778	0.564	0.425	0.927	0.881	0.673	0.773	0.698	–	–	–	–	–
